Results from patent US5278308A, “Iodine derivatives of tetrabenazine” (The Trustees of The University of Pennsylvania, priority 1992, dated 1994).
Like-named read-outs stand apart in the source and are kept apart here.

Assays:
[1] = Biodistribution in rats (iv injection); assay type: in vivo; details: rat; for Blood uptake (blood assumed 7% of body weight) / Heart uptake / Kidney uptake / Liver uptake / Lung uptake / Muscle uptake (muscle assumed 40% of body weight) / Skin uptake / Spleen uptake / Thyroid uptake / Brain uptake: iv
Experimental: While under ether anesthesia, each rat was injected in the femoral vein with 0.2 mL saline solution containing [^123 I]I-TBZ (1-5uCi) either racemic mixture, peak-A or peak-B. The rats were sacrificed at various time points postinjection by cardiac excision. The tissues were weighed and the radioactivity was measured with a Canberra gamma counter (Model 5000). The percent dose per organ was calculated by a comparison of the tissue counts to suitably diluted aliquots of the injected material. Total activities of blood and muscle were calculated assuming that they were 7% and 40% of total body weight, respectively Results are presented in Tables 3, 4A and 4B.

[2] = Regional brain distribution in rats (dissection, iv injection); assay type: in vivo; details: for Regional brain uptake, cerebellum / Regional brain uptake, cortex / Regional brain uptake, hippocampus / Regional brain uptake, striatum / tissue uptake at 2 min / tissue uptake at 0.5 h / tissue uptake at 4 h / tissue uptake at 6 h / tissue uptake at 16 h: rat; for tissue uptake at 0.5 h: 30 min; for tissue uptake at 4 h: 240 min; for tissue uptake at 6 h: 2 rats only
Experimental: Regional brain distribution of [^123 I]I-TBZ (with either a racemic mixture, peak A or B) in rats was obtained after an iv injection. By dissecting, weighing and counting samples from different brain regions (cortex, striatum, hippocampus and cerebellum), % dose/gram of the samples was calculated by comparing the sample counts with the counts of the diluted initial dose. The ratio of uptake in each region was obtained by dividing % dose/gram of each region with that of the cerebellum. The effect of tetrahydrobenazine on the uptake of peak A or peak B was investigated by pretreating the rats with the TBZ 3 mg/rat at 3 min before iv injection of [^123 I]I-TBZ. At 20 min. post injection the rats were dissected and the regional brain dissection was carried out as above.

[3] = Stability of radiolabeled compound at room temperature; assay type: physicochemical
Experimental: The […] labeled iodovinYl-TBZ derivative ([^123 I]-TBZ, 2b) was prepared by an iododestannylation reaction. Aqueous hydrogen peroxide (1 mg/mL EtOH), 200 uL of 0.1 N HCl and 5 mCi [^123 I]sodium iodide were combined in a sealed vial. The reaction was allowed to proceed at room temperature for 20 min, after which it was terminated by addition of 0.1 mL sodium bisulfite (300 mg/ml). The reaction was then neutralized with NaHCO3 and extracted with ethyl acetate (3×1 mL). The combined organic layers were dried under nitrogen and the desired product was purified through HPLC on a reverse phase column (PRP-1, Hamilton) eluting with a isocratic solvent of 90% acetonitrile-10% buffer (5 mM 3,3'-dimethylglutaric acid, pH 7.0) and a flow rate of 1 mL/min. The radiochemical purity was analyzed by the above chromatographic system and the purified [^123 I] product (yield 50%, purity >98%) was obtained for animal experiments. The radiolabeled [^123 I]I-TBZ is stable at room temperature for up to 15 h.

[4] = system: monoamine uptake-storage mechanism of amine granules in the synapse; details: in vivo; cited from earlier work
[5] = system: monoamine transporter of chromaffin granules and CNS synaptic vesicles; details: cited from earlier work
[6] = cerebellum, read-out: Regional brain uptake, cerebellum
[7] = cortex, read-out: Regional brain uptake, cortex
[8] = hippocampus, read-out: Regional brain uptake, hippocampus
[9] = striatum, read-out: Regional brain uptake, striatum

For COc1cc2c(cc1OC)C1CC(O)(C=C[123I])C(CC(C)C)CN1CC2 (racemic) [Compound 2b], the “Crossing of the intact blood brain barrier and localization in the brain (in words)” value [1] was “can cross the intact blood brain barrier and localize in the brain”, the “Blood uptake (blood assumed 7% of body weight)” value ([1]; 2 min) was 5.99 ± 2.54 % Dose/organ and the Heart uptake ([1]; 2 min) was 1.33 ± 0.19 % Dose/organ. It also gave a Kidney uptake ([1]; 2 min) of 4.18 ± 0.46 % Dose/organ, a Liver uptake ([1]; 2 min) of 11.1 ± 1.22 % Dose/organ and a Lung uptake ([1]; 2 min) of 4.44 ± 1.44 % Dose/organ. The “Muscle uptake (muscle assumed 40% of body weight)” value ([1]; 2 min) was 6.93 ± 0.12 % Dose/organ, the Skin uptake ([1]; 2 min) was 4.08 ± 2.32 % Dose/organ and the Spleen uptake ([1]; 2 min) was 0.28 ± 0.04 % Dose/organ. The Thyroid uptake ([1]; 2 min) was 0.06 ± 0.02 % Dose/organ, the Brain uptake ([1]; 2 min, listed as [^123 I]I-TBZ (2b)) was 0.92 % Dose/organ and the Brain uptake ([1]; 2 min, listed as [^123 I]I-TBZ racemic mixture) was 0.92 ± 0.13 % Dose/organ. For the same molecule, the “Blood uptake (blood assumed 7% of body weight)” value ([1]; 30 min) was 1.84 ± 0.17 % Dose/organ, the Heart uptake ([1]; 30 min) was 0.34 ± 0.02 % Dose/organ and the Kidney uptake ([1]; 30 min) was 1.55 ± 0.21 % Dose/organ. For the same molecule, the Liver uptake ([1]; 30 min) was 9.75 ± 1.83 % Dose/organ, the Lung uptake ([1]; 30 min) was 1.02 ± 0.14 % Dose/organ and the “Muscle uptake (muscle assumed 40% of body weight)” value ([1]; 30 min) was 20.18 ± 2.19 % Dose/organ. For the same molecule, the Skin uptake ([1]; 30 min) was 11.53 ± 2.54 % Dose/organ, the Spleen uptake ([1]; 30 min) was 0.29 ± 0.03 % Dose/organ and the Thyroid uptake ([1]; 30 min) was 0.03 ± 0.005 % Dose/organ. The Brain uptake ([1]; 30 min, listed as [^123 I]I-TBZ (2b)) was 0.36 % Dose/organ, the Brain uptake ([1]; 30 min, listed as [^123 I]I-TBZ racemic mixture) was 0.36 ± 0.05 % Dose/organ and the “Blood uptake (blood assumed 7% of body weight)” value ([1]; 60 min) was 2.46 ± 0.56 % Dose/organ. It also gave a Brain uptake ([1]; 60 min) of 0.28 ± 0.05 % Dose/organ, a Heart uptake ([1]; 60 min) of 0.35 ± 0.06 % Dose/organ and a Kidney uptake ([1]; 60 min) of 1.47 ± 0.22 % Dose/organ. The Liver uptake ([1]; 60 min) was 8.57 ± 0.41 % Dose/organ, the Lung uptake ([1]; 60 min) was 1.47 ± 0.64 % Dose/organ and the “Muscle uptake (muscle assumed 40% of body weight)” value ([1]; 60 min) was 14.9 ± 1.77 % Dose/organ. For the same molecule, the Skin uptake ([1]; 60 min) was 6.39 ± 2.37 % Dose/organ, the Spleen uptake ([1]; 60 min) was 0.37 ± 0.10 % Dose/organ and the Thyroid uptake ([1]; 60 min) was 0.05 ± 0.002 % Dose/organ. For the same molecule, the “Blood uptake (blood assumed 7% of body weight)” value ([1]; 120 min) was 2.16 ± 0.21 % Dose/organ, the Brain uptake ([1]; 120 min) was 0.16 ± 0.03 % Dose/organ and the Heart uptake ([1]; 120 min) was 0.24 ± 0.06 % Dose/organ. For the same molecule, the Kidney uptake ([1]; 120 min) was 0.97 ± 0.13 % Dose/organ, the Liver uptake ([1]; 120 min) was 6.71 ± 0.84 % Dose/organ and the Lung uptake ([1]; 120 min) was 0.78 ± 0.43 % Dose/organ. The “Muscle uptake (muscle assumed 40% of body weight)” value ([1]; 120 min) was 15.4 ± 4.17 % Dose/organ, the Skin uptake ([1]; 120 min) was 7.05 ± 1.52 % Dose/organ and the Spleen uptake ([1]; 120 min) was 0.20 ± 0.06 % Dose/organ. The Thyroid uptake ([1]; 120 min) was 0.08 ± 0.05 % Dose/organ, the “Blood uptake (blood assumed 7% of body weight)” value ([1]; 240 min) was 1.82 ± 0.26 % Dose/organ and the Brain uptake ([1]; 240 min) was 0.13 ± 0.04 % Dose/organ. It also gave a Heart uptake ([1]; 240 min) of 0.18 ± 0.03 % Dose/organ, a Kidney uptake ([1]; 240 min) of 0.73 ± 0.13 % Dose/organ and a Liver uptake ([1]; 240 min) of 4.57 ± 0.69 % Dose/organ. The Lung uptake ([1]; 240 min) was 0.54 ± 0.09 % Dose/organ, the “Muscle uptake (muscle assumed 40% of body weight)” value ([1]; 240 min) was 11.24 ± 2.57 % Dose/organ and the Skin uptake ([1]; 240 min) was 4.21 ± 0.25 % Dose/organ. For the same molecule, the Spleen uptake ([1]; 240 min) was 0.18 ± 0.02 % Dose/organ, the Thyroid uptake ([1]; 240 min) was 0.15 ± 0.18 % Dose/organ and the “Blood uptake (blood assumed 7% of body weight)” value ([1]; 6 hr, 2 rats only) was 1.58 ± 0.15 % Dose/organ. It also gave a Brain uptake ([1]; 6 hr, 2 rats only) of 0.05 ± 0.001 % Dose/organ, a Heart uptake ([1]; 6 hr, 2 rats only) of 0.11 ± 0.01 % Dose/organ and a Kidney uptake ([1]; 6 hr, 2 rats only) of 0.45 ± 0.03 % Dose/organ. The Liver uptake ([1]; 6 hr, 2 rats only) was 3.21 ± 0.28 % Dose/organ, the Lung uptake ([1]; 6 hr, 2 rats only) was 0.36 % Dose/organ and the “Muscle uptake (muscle assumed 40% of body weight)” value ([1]; 6 hr, 2 rats only) was 6.94 ± 0.93 % Dose/organ. It also gave a Skin uptake ([1]; 6 hr, 2 rats only) of 4.15 ± 0.63 % Dose/organ, a Spleen uptake ([1]; 6 hr, 2 rats only) of 0.11 ± 0.004 % Dose/organ and a Thyroid uptake ([1]; 6 hr, 2 rats only) of 0.42 ± 0.15 % Dose/organ. For the same molecule, the “Blood uptake (blood assumed 7% of body weight)” value ([1]; 16 hr) was 0.42 ± 0.07 % Dose/organ, the Brain uptake ([1]; 16 hr) was 0.008 ± 0.001 % Dose/organ and the Heart uptake ([1]; 16 hr) was 0.02 ± 0.003 % Dose/organ. The Kidney uptake ([1]; 16 hr) was 0.12 ± 0.015 % Dose/organ, the Liver uptake ([1]; 16 hr) was 1.32 ± 0.096 % Dose/organ and the Lung uptake ([1]; 16 hr) was 0.07 ± 0.006 % Dose/organ. For the same molecule, the “Muscle uptake (muscle assumed 40% of body weight)” value ([1]; 16 hr) was 1.49 ± 0.23 % Dose/organ, the Skin uptake ([1]; 16 hr) was 2.04 ± 0.18 % Dose/organ and the Spleen uptake ([1]; 16 hr) was 0.02 ± 0.002 % Dose/organ. For the same molecule, the Thyroid uptake ([1]; 16 hr) was 0.009 ± 0.004 % Dose/organ, the “Regional distribution / selectivity in rat brain (in words)” value ([2]; listed as [^123 I]-2b) was “did not exhibit any selectivity” and the “Regional distribution / selectivity in rat brain (in words)” value ([2]; listed as [^123 I]I-TBZ (2b)) was “exhibits no regional selectivity”. The “Regional brain uptake, cerebellum” value ([2]; 60 min) was 0.14 ± 0.04 % Dose/g, the “Regional brain uptake, cortex” value ([2]; 60 min) was 0.14 ± 0.04 % Dose/g and the “Regional brain uptake, hippocampus” value ([2]; 60 min) was 0.14 ± 0.02 % Dose/g. The “Regional brain uptake, striatum” value ([2]; 60 min) was 0.15 ± 0.03 % Dose/g, the “Regional brain uptake, cerebellum” value ([2]; 120 min) was 0.14 ± 0.003 % Dose/g and the “Regional brain uptake, cortex” value ([2]; 120 min) was 0.15 ± 0.09 % Dose/g. For the same molecule, the “Regional brain uptake, hippocampus” value ([2]; 120 min) was 0.12 ± 0.04 % Dose/g, the “Regional brain uptake, striatum” value ([2]; 120 min) was 0.12 ± 0.04 % Dose/g and the tissue uptake at 2 min [2, 6] was 0.5 ± 0.13 %ID/g. The tissue uptake at 0.5 h [2, 6] was 0.17 ± 0.03 %ID/g, the tissue uptake at 4 h [2, 6] was 0.051 ± 0.014 %ID/g and the tissue uptake at 6 h [2, 6] was 0.025 ± 0.0002 %ID/g. It also gave a tissue uptake at 16 h [2, 6] of 0.0063 ± 0.001 %ID/g, a tissue uptake at 2 min [2, 7] of 0.55 ± 0.24 %ID/g and a tissue uptake at 0.5 h [2, 7] of 0.2 ± 0.02 %ID/g. For the same molecule, the tissue uptake at 4 h [2, 7] was 0.052 ± 0.021 %ID/g, the tissue uptake at 6 h [2, 7] was 0.022 %ID/g and the tissue uptake at 16 h [2, 7] was 0.0061 ± 0.0013 %ID/g. The tissue uptake at 2 min [2, 8] was 0.58 ± 0.16 %ID/g, the tissue uptake at 0.5 h [2, 8] was 0.21 ± 0.02 %ID/g and the tissue uptake at 4 h [2, 8] was 0.048 ± 0.015 %ID/g. It also gave a tissue uptake at 6 h [2, 8] of 0.028 ± 0.0064 %ID/g, a tissue uptake at 16 h [2, 8] of 0.0051 ± 0.002 %ID/g and a tissue uptake at 2 min [2, 9] of 0.54 ± 0.21 %ID/g. It also gave a tissue uptake at 0.5 h [2, 9] of 0.21 ± 0.006 %ID/g, a tissue uptake at 4 h [2, 9] of 0.056 ± 0.014 %ID/g and a tissue uptake at 6 h [2, 9] of 0.024 ± 0.0029 %ID/g. For the same molecule, the tissue uptake at 16 h [2, 9] was 0.0062 ± 0.0026 %ID/g and the “Stable at room temperature for up to” value [3] was “up to 15 h”.
For COC(=O)[C@H]1[C@H]2C[C@@H]3c4[nH]c5cc(OC)ccc5c4CCN3C[C@H]2C[C@@H](OC(=O)c2cc(OC)c(OC)c(OC)c2)[C@@H]1OC [Reserpine], the “Irreversible damage to storage mechanism / neurons (in words)” value [4] is listed as “the storage mechanism is irreversibly damaged”.
For COc1cc2c(cc1OC)C1CC(OC(C)=O)C(CC(C)C)CN1CC2 (stereo not shown) [acetyl derivative of dihydro-TBZ], the “binding affinity for the transporter (in words)” value [5] is listed as “retain high affinity”.
